Among the data in patent US20200069691A1, “HETEROCYCLIC COMPOUNDS AS HIV PROTEASE INHIBITORS” (Merck Sharp & Dohme Corp., priority 2016, published 2020) are IC50 values, retold here.

Molecules are shown by their SMILES.

For the assay, the target named is T1, wild-type HIV-1 protease (Human immunodeficiency virus type 1 group M subtype B, UniProt P04585).
T1 construct: Escherichia coli expressed wild-type HIV-1 protease protein
Description: Assay for Inhibition of Microbial Expressed HIV Protease (peptide substrate cleavage, LC-MS/MS readout). The format is biochemical. Conditions: E. coli expressed wild-type HIV-1 protease, mean of at least two independent experiments, read-out: HIV Pr Enzyme HIV1 PR IC50. Put shortly: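 Cleavage of Val-Ser-Gln-Asn-(β-naphthyl)Ala-Pro-Ile-Val (400 μM) by recombinant HIV-1 protease ([…]) ran 1 h at 30 °C after a 30 min room-temperature inhibitor preincubation in 50 mM sodium acetate pH 5.5. Product peak areas by LC-MS/MS gave inhibition; values average at least two independent runs.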

Usually IC50 stands for the concentration at which inhibition is half-maximal. Regarding `C[C@H](c1cccc(C(=O)N2Cc3nccnc3C2)c1)N1C(=N)NC(c2ccccc2)(c2ccccc2)C1=O` [Compound 185, 3-{(1R)-1-[3-(5,7-dihydro-6H-pyrrolo[3,4-b]pyrazin-6-ylcarbonyl)phenyl]ethyl}-2-imino-5,5-diphenylimidazolidin-4-one], the IC50 is 0.0405 µM. `CC(C)CC[C@]1(c2ccc(F)cc2)NC(=N)N(C(c2ccc(C(F)(F)F)c(C(=O)N3Cc4nccnc4C3)c2)C2CCCC2)C1=O` (stereo partly drawn) [Compound 101, (5R)-3-{cyclopentyl[3-(5,7-dihydro-6H-pyrrolo[3,4-b]pyrazin-6-ylcarbonyl)-4-(trifluoromethyl)-phenyl]methyl}-5-(4-fluorophenyl)-2-imino-5-(3-methylbutyl)-imidazolidin-4-one]: the IC50 came out at 0.0232 µM.

With `N=C1NC(c2ccccc2)(c2ccccc2)C(=O)N1Cc1cccc(C(=O)N2CCN(c3ccc(F)cc3)CC2)c1` [Compound 359, 3-(3-{[4-(4-fluorophenyl)piperazin-1-yl]carbonyl}benzyl)-2-imino-5,5-diphenylimidazolidin-4-one], the IC50 was found to be 0.0939 µM. In the case of `COc1ccc2c(c1)CCN(C(=O)c1cc(CN3C(=N)NC(CCC(C)C)(c4ccccc4)C3=O)ccc1C(F)(F)F)CC2` (centres unmarked) [Compound 154, 2-imino-3-{3-[(7-methoxy-1,2,4,5-tetrahydro-3H-3-benzazepin-3-yl)carbonyl]-4-(trifluoromethyl)-benzyl}-5-(3-methylbutyl)-5-phenylimidazolidin-4-one], the IC50 came to 0.0102 µM. As to `N=C1NC(c2ccccc2)(c2ccccc2)C(=O)N1Cc1ccc(Cl)c(C(=O)N2Cc3cncnc3C2)c1` [Compound 374, 3-[4-chloro-3-(5,7-dihydro-6H-pyrrolo[3,4-d]pyrimidin-6-ylcarbonyl)benzyl]-2-imino-5,5-diphenylimidazolidin-4-one], the IC50 was found to be 0.00702 µM. The value for `N=C1N[C@](CCCC(F)(F)F)(c2ccc(F)cc2)C(=O)N1Cc1ccc(C(F)(F)F)c(C(=O)N2Cc3cnc(-c4ccc(-n5cccn5)nc4)nc3C2)c1` [Compound 89, (5R)-5-(4-fluorophenyl)-2-imino-3-[3-({2-[6-(1H-pyrazol-1-yl)pyridin-3-yl]-5,7-dihydro-6H-pyrrolo[3,4-d]pyrimidin-6-yl}carbonyl)-4-(trifluoromethyl)benzyl]-5-(4,4,4-trifluorobutyl)imidazolidin-4-one] was 0.0157 µM; that for `CNC(=O)c1nc2n(c1Cl)CCN(C(=O)c1cccc(CN3C(=N)NC(c4ccccc4)(c4ccccc4)C3=O)c1)C2` [Compound 251, 3-chloro-7-({3-[(2-imino-5-oxo-4,4-diphenylimidazolidin-1-yl)methyl]phenyl}carbonyl)-N-methyl-5,6,7,8-tetrahydroimidazo[1,2-a]pyrazine-2-carboxamide] was 0.0192 µM; that for `N=C1NC(c2ccccc2)(c2ccccc2)C(=O)N1Cc1cccc(C(=O)N2CCc3ccc(C(F)(F)F)cc3C2)c1` [Compound 334, 2-imino-5,5-diphenyl-3-(3-{[7-(trifluoromethyl)-3,4-dihydroisoquinolin-2(1H)-yl]carbonyl}benzyl) imidazolidin-4-one] was 0.07 µM. Take `N#Cc1ncc2c(n1)CN(C(=O)c1cccc(CN3C(=N)NC(c4ccc(F)cc4)(c4ccc(F)cc4)C3=O)c1)C2` [Compound 182, 6-[(3-{[4,4-bis(4-fluorophenyl)-2-imino-5-oxoimidazolidin-1-yl]methyl}phenyl)carbonyl]-6,7-dihydro-5H-pyrrolo[3,4-d]pyrimidine-2-carbonitrile]: the IC50 was determined as 0.0017 µM. `CC(C)CCC1(c2ccccc2)NC(=N)N(Cc2ccc(C(F)(F)F)c(C(=O)N3CCC(C)(C)C3)c2)C1=O` (centres unmarked) [Compound 176, 3-{3-[(3,3-dimethylpyrrolidin-1-yl)carbonyl]-4-(trifluoromethyl)benzyl}-2-imino-5-(3-methylbutyl)-5-phenylimidazolidin-4-one]: the IC50 worked out at 0.0634 µM. On to `CC(C)C[C@]1(c2ccccc2)NC(=N)N(Cc2ccc(C(F)(F)F)c(C(=O)N3Cc4nccnc4C3)c2)C1=O` [Compound 149, (5R)-3-[3-(5,7-dihydro-6H-pyrrolo[3,4-b]pyrazin-6-ylcarbonyl)-4-(trifluoromethyl)-benzyl]-2-imino-5-(2-methylpropyl)-5-phenyl-imidazolidin-4-one], for which the IC50 worked out at 0.00524 µM.

Take `N=C1NC(c2ccccc2)(c2ccccc2)C(=O)N1Cc1ccc(F)c(C(=O)N2Cc3nccnc3C2)c1` [Compound 379, 3-[3-(5,7-dihydro-6H-pyrrolo[3,4-b]pyrazin-6-ylcarbonyl)-4-fluorobenzyl]-2-imino-5,5-diphenylimidazolidin-4-one]: the IC50 was found to be 0.0107 µM. The value for `CC(C)CC[C@]1(c2ccccc2)NC(=N)N([C@H](C)c2cccc(C(=O)N3Cc4cncnc4C3)c2)C1=O` [Compound 216, 3-{(1R)-1-[3-(5,7-dihydro-6H-pyrrolo[3,4-d]pyrimidin-6-ylcarbonyl)phenyl]ethyl}-2-imino-5-(3-methylbutyl)-5-phenylimidazolidin-4-one] was 0.0102 µM.

In the case of `Cc1nc2c(s1)CN(C(=O)c1cccc(CN3C(=N)NC(c4ccccc4)(c4ccccc4)C3=O)c1)C2` [Compound 206, 5-({3-[(2-imino-5-oxo-4,4-diphenylimidazolidin-1-yl)methyl]phenyl}carbonyl)-2-methyl-3,4,5,6-tetrahydropyrrolo[3,4-d][1,3]thiazol-1-ium], the IC50 was found to be 0.0082 µM. For `Cc1nocc1-c1ncc2c(n1)CN(C(=O)c1cc(CN3C(=N)N[C@](CCCC(F)(F)F)(c4ccc(F)cc4)C3=O)ccc1C(F)(F)F)C2` [Compound 60, (5R)-5-(4-fluorophenyl)-2-imino-3-[3-{[2-(3-methylisoxazol-4-yl)-5,7-dihydro-6H-pyrrolo[3,4-d]pyrimidin-6-yl]carbonyl}-4-(trifluoromethyl)benzyl]-5-(4,4,4-trifluorobutyl)imidazolidin-4-one], the IC50 was determined as 0.00655 µM. `CC(C)CC[C@]1(c2ccccc2)NC(=N)N([C@H](C)c2cccc(C(=O)N3Cc4nccnc4C3)c2)C1=O` [Compound 217, 3-{(1R)-1-[3-(5,7-dihydro-6H-pyrrolo[3,4-b]pyrazin-6-ylcarbonyl)phenyl]ethyl}-2-imino-5-(3-methylbutyl)-5-phenylimidazolidin-4-one]: the half-inhibitory concentration (IC50) was 0.0103 µM. Turning to `CC(C)CC1(c2ccccc2)NC(=N)N(Cc2cccc(C(=O)N3Cc4cnc(C#N)nc4C3)c2)C1=O` (centres unmarked) [Compound 222, 6-[(3-{[2-imino-4-(2-methylpropyl)-5-oxo-4-phenylimidazolidin-1-yl]methyl}phenyl)carbonyl]-6,7-dihydro-5H-pyrrolo[3,4-d]pyrimidine-2-carbonitrile], the IC50 came to 0.0111 µM. Regarding `COC(=O)N1CCN(C(=O)c2cccc(CN3C(=N)NC(c4ccc(F)cc4)(c4cccc(Br)c4)C3=O)c2)CC1` (centres unmarked) [Compound 240, methyl 4-[(3-{[4-(3-bromophenyl)-4-(4-fluorophenyl)-2-imino-5-oxoimidazolidin-1-yl]methyl}phenyl)carbonyl] piperazine-1-carboxylate], the IC50 turned out to be 0.0152 µM.

Regarding `CC(C)CCC1(c2ccc(F)cc2)NC(=N)N(Cc2ccc(C(F)(F)F)c(C(=O)N3Cc4cncnc4C3)c2)C1=O` (centres unmarked) [Compound 167, 3-[3-(5,7-dihydro-6H-pyrrolo[3,4-d]pyrimidin-6-ylcarbonyl)-4-(trifluoromethyl)benzyl]-5-(4-fluorophenyl)-2-imino-5-(3-methylbutyl)imidazolidin-4-one], the IC50 turned out to be 0.0369 µM.

Regarding `COc1ccc2c(c1)CCN(C(=O)c1cc(CN3C(=N)NC(c4ccc(F)cc4)(c4ccc(F)cc4)C3=O)ccc1C(F)(F)F)CC2` [Compound 165, 5.5-bis(4-fluorophenyl)-2-imino-3-{3-[(7-methoxy-1,2,4,5-tetrahydro-3H-3-benzazepin-3-yl)carbonyl]-4-(trifluoromethyl)benzyl} imidazolidin-4-one], the IC50 came to 0.0341 µM. The same measure for `CC(C)CC1(c2ccccc2)NC(=N)N(Cc2cccc(C(=O)N3Cc4cncnc4C3)c2)C1=O` (centres unmarked) [Compound 253, 3-[3-(5,7-dihydro-6H-pyrrolo[3,4-d]pyrimidin-6-ylcarbonyl)benzyl]-2-imino-5-(2-methylpropyl)-5-phenylimidazolidin-4-one]: 0.0201 µM; for `CC(c1cccc(C(=O)N2Cc3ccccc3C2)c1)N1C(=N)NC(c2ccccc2)(c2ccccc2)C1=O` (centres unmarked) [Compound 224, 3-{1-[3-(1,3-dihydro-2H-isoindol-2-ylcarbonyl)phenyl]ethyl}-2-imino-5,5-diphenylimidazolidin-4-one]: 0.0119 µM; for `CCC(c1cccc(C(=O)N2Cc3ccccc3C2)c1)N1C(=N)NC(c2ccccc2)(c2ccccc2)C1=O` (centres unmarked) [Compound 225, 3-{1-[3-(1,3-dihydro-2H-isoindol-2-ylcarbonyl)phenyl]propyl}-2-imino-5,5-diphenylimidazolidin-4-one]: 0.0119 µM. `N=C1NC(c2ccccc2)(c2ccccc2)C(=O)N1Cc1ccc(Cl)c(C(=O)N2Cc3nccnc3C2)c1` [Compound 362, 3-[4-chloro-3-(5,7-dihydro-6H-pyrrolo[3,4-b]pyrazin-6-ylcarbonyl)benzyl]-2-imino-5,5-diphenylimidazolidin-4-one]: the IC50 is 0.00134 µM.

With `CC(C)CCC1(c2cccc(F)c2)NC(=N)N(Cc2cccc(C(=O)N3Cc4ccccc4C3)c2)C1=O` (centres unmarked) [Compound 270, 3-[3-(1,3-dihydro-2H-isoindol-2-ylcarbonyl)benzyl]-5-(3-fluorophenyl)-2-imino-5-(3-methylbutyl)imidazolidin-4-one], the IC50 turned out to be 0.027 µM.

With `CCc1nnc2n1CCN(C(=O)c1cc(CN3C(=N)N[C@](CCCC(F)(F)F)(c4ccc(F)cc4)C3=O)ccc1C(F)(F)F)C2` [Compound 65, (5R)-3-{3-[(3-ethyl-5,6-dihydro[1,2,4]triazolo[4,3-a]pyrazin-7(8H)-yl)carbonyl]-4-(trifluoromethyl)benzyl}-5-(4-fluorophenyl)-2-imino-5-(4,4,4-trifluorobutyl)imidazolidin-4-one], the IC50 came to 0.00739 µM.
